ChEMBL document CHEMBL4342462, “Discovery and Characterization of 2,5-Substituted Benzoic Acid Dual Inhibitors of the Anti-apoptotic Mcl-1 and Bfl-1 Proteins” (J Med Chem, 2020)
Calls of active or inactive are those of the source. The rule behind the calls is not given here.

Assays:
Bcl-2-related protein A1 [1] = biological target: T1, Bcl-2-related protein A1 (Homo sapiens, UniProt Q16548)
T1 sequence (Q16548 whole entry): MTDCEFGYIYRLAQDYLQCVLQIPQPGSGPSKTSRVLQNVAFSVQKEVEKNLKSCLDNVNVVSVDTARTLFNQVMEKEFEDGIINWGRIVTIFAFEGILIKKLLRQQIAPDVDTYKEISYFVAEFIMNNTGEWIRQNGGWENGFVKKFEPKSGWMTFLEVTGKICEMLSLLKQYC

[2] = biological target: T2, Induced myeloid leukemia cell differentiation protein Mcl-1 (Homo sapiens, UniProt Q07820)
Description: Inhibition of N-terminal His6-tagged human Mcl1 expressed in Escherichia coli Rosetta2 DE3 by fluorescent labeled Flu-Bid peptide based fluorescence polarization assay

Bcl-2-like protein 1 [3] = biological target: T3, Bcl-2-like protein 1 (Homo sapiens, UniProt Q07817)
[4] = biological target: T4, Apoptosis regulator Bcl-2 (Homo sapiens, UniProt P10415)
Bcl-2-related protein A1 [5] = biological target: T1, Bcl-2-related protein A1; remark: listed apart in the source
[6] = biological target: T2, Induced myeloid leukemia cell differentiation protein Mcl-1; remark: listed apart in the source
Description: Binding affinity to immobilized biotin-labeled and N-terminal His6-tagged human Mcl-1 expressed in Escherichia coli Rosetta2 DE3 by biolayer interferometry

[7] = biological target: T5, Bcl-2-related protein A1 (Homo sapiens) (UniProt Q16548)
T5 sequence (whole entry): T1 sequence (Q16548 whole entry)

Bcl-2-like protein 1 [8] = biological target: T3, Bcl-2-like protein 1; assay: Inhibition of Bcl-xL (unknown origin) expressed in Eu-Myc cells assessed as induction of cell death at 75 to 100 uM incubated for 24 hrs by violet LIVE/DEAD fixable dead cell staining based flow cytometry
[9] = biological target: T4, Apoptosis regulator Bcl-2; assay: Inhibition of Bcl2 (unknown origin) expressed in Eu-Myc cells assessed as induction of cell death at 75 to 100 uM incubated for 24 hrs by violet LIVE/DEAD fixable dead cell staining based flow cytometry

T3 sequence (Q07817 whole entry): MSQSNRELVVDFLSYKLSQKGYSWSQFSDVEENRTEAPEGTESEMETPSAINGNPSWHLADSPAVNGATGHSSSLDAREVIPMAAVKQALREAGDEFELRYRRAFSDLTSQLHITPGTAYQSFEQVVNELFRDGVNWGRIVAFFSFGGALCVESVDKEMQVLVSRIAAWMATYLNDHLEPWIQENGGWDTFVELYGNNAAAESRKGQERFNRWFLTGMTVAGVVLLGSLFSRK
T4 sequence (P10415 whole entry): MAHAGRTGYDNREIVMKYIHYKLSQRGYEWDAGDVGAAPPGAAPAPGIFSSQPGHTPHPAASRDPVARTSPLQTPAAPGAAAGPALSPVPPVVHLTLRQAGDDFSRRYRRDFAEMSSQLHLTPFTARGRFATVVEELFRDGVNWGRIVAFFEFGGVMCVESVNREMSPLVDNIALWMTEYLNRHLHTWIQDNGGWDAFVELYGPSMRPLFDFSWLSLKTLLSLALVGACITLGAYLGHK
T2 sequence (Q07820 whole entry): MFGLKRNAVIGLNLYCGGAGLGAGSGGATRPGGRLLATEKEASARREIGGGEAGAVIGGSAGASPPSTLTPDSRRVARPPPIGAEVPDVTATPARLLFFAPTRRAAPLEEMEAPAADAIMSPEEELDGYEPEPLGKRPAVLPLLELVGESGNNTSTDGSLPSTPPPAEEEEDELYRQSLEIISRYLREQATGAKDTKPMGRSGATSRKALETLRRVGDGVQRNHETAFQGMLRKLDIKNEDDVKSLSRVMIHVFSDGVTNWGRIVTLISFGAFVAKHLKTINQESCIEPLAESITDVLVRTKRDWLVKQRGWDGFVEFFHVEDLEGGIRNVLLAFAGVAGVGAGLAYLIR

Structure (SMILES) | Ki (Bcl-2-related protein A1 [1]) [nM] | Ki [2] [nM] | also measured
CC(C)(C)c1ccc(N2CCN(S(=O)(=O)Nc3ccc(SCCC(=O)Nc4ccccc4)cc3C(=O)O)CC2)cc1 | 1100 | 950 | Ki (Bcl-2-like protein 1 [3]): > 25000 nM
O=C(O)c1cc(SCCc2ccccc2)ccc1NS(=O)(=O)c1ccc(C2CCCCC2)cc1 | 170 | 87 | 
O=C(Cc1ccccc1)Nc1ccc(NS(=O)(=O)c2ccccc2)c(C(=O)O)c1 | > 70000 | 70400 | 
O=C(CCCSc1ccc(NS(=O)(=O)c2ccccc2)c(C(=O)O)c1)Nc1ccccc1 | > 70000 | 32800 | 
O=C(O)c1cc(SCCc2ccccc2)ccc1NS(=O)(=O)N1CCN(Cc2ccccc2)CC1 | 1000 | 840 | 
O=C(O)c1cc(SCCc2ccccc2)ccc1NS(=O)(=O)N1CCC(c2ccccc2)CC1 | 390 | 330 | 
O=C(O)c1cc(NCCc2ccccc2)ccc1NS(=O)(=O)c1ccccc1 | 3800 | 4700 | 
O=C(O)c1ccccc1NS(=O)(=O)c1ccccc1 | > 100000 | 47800 | 
O=C(CCc1ccccc1)Nc1ccc(NS(=O)(=O)c2ccccc2)c(C(=O)O)c1 | 62000 | 19000 | 
O=C(Nc1ccc(SCCc2ccccc2)cc1C(=O)O)c1ccccc1 | 4600 | 2700 | 
O=C(O)c1cc(SCCc2ccccc2)ccc1NS(=O)(=O)c1ccc(Br)cc1 | 810 | 810 | 
O=C(O)c1cc(SCCc2ccccc2)ccc1NS(=O)(=O)CCc1ccccc1 | 1700 | 1700 | 
O=C(O)c1cc(SCCc2ccccc2)ccc1NS(=O)(=O)c1ccc(-c2ccccc2)cc1 | 150 | 90 | 
CC(C)(C)c1ccc(N2CCN(S(=O)(=O)Nc3ccc(SCCc4cccc(O)c4)cc3C(=O)O)CC2)cc1 | 250 | 290 | 
Nc1ccc(SCCc2ccccc2)cc1C(=O)O | 3700 | 3400 | 
O=C(O)c1cc(SCCc2ccccc2)ccc1NS(=O)(=O)c1cccs1 | 3400 | 2000 | 
O=C(CCSc1ccc(NS(=O)(=O)c2ccccc2)c(C(=O)O)c1)Nc1ccccc1 | 14800 | 13100 | 
O=C(O)c1cc(OCCc2ccccc2)ccc1NS(=O)(=O)c1ccccc1 | 10600 | 6100 | 
O=C(O)c1cc(SCc2ccccc2)ccc1NS(=O)(=O)c1ccccc1 | 3000 | 2600 | 
O=C(O)c1cc(SCCc2ccccc2)ccc1NS(=O)(=O)c1ccccc1 | 1600 | 1500 | Ki [4]: > 25000 nM; Ki (Bcl-2-like protein 1 [3]): > 25000 nM
O=C(O)c1cc(SCCc2ccccc2)ccc1NS(=O)(=O)N1CCN(c2ccccc2)CC1 | 760 | 570 | Ki [4]: 11700 nM; Ki (Bcl-2-like protein 1 [3]): 6600 nM
CC(C)(C)c1ccc(N2CCN(S(=O)(=O)Nc3ccc(SCCc4ccccc4)cc3C(=O)O)CC2)cc1 | 84 | 73 | Kd (Bcl-2-related protein A1 [5]): 920 nM; Kd [6]: 490 nM; Activity [7]: Active; inhibition (Bcl-2-like protein 1 [8]): Active; Ki [4]: 1200 nM; Ki (Bcl-2-like protein 1 [3]): 3500 nM; inhibition [9]: Active
O=C(O)c1cc(SCCc2ccccc2)ccc1NS(=O)(=O)c1ccc(-c2ccccc2)nc1 | 280 | 200 | 
COc1cccc(CCSc2ccc(NS(=O)(=O)N3CCN(c4ccc(C(C)(C)C)cc4)CC3)c(C(=O)O)c2)c1 | 100 | 74 | Ki [4]: 1200 nM; Ki (Bcl-2-like protein 1 [3]): 6700 nM
